According to EP3046573B1, “AMYLIN ANALOGUES” (Zealand Pharma A/S, priority 2013, dated 2015):
Numbered stars: 1 amine (or outer) side, 2 acyl side, 3 side chain; on linkers, the order of the positions; unused ones are H or OH. Bridge positions count the residues as written; N and C are the ends. Square brackets hold non-standard residues; d marks the D form. Peptide text beside a SMILES is read from it. * marks the point of attachment. C20 diacid = O=C(O)CCCCCCCCCCCCCCCCCCC(=O)*; γGlu = O=C(O)[C@H](CCC(=O)[*:2])N[*:1]; NMeI = CC[C@H](C)[C@H](NC)C(=O)O; Sar = CNCC(=O)O

Assays:
[1] = Solubility assessment (turbidity absorbance at 325 nm); assay type: physicochemical; details: stock 2 mg/ml diluted 1:1, ambient temperature (typically 25°C), n=1; for Solubility, Acetate buffer pH 4: 100 mM acetate buffer pH 4.0; for Solubility, Acetate buffer pH 5: 100 mM acetate buffer pH 5.0; for Solubility, Histidine buffer pH 6: 100 mM histidine buffer pH 6.0; for Solubility, Histidine buffer pH 7: 100 mM histidine buffer pH 7.0; for Solubility, Phosphate buffer pH 6: 100 mM phosphate buffer pH 6.0; for Solubility, Phosphate buffer pH 7: 100 mM phosphate buffer pH 7.0; for Solubility, Phosphate buffer pH 7.5: 100 mM phosphate buffer pH7.5
Procedure, shortened: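 Stock 2 mg/ml peptide, H2O/HCl pH 2.5; 1:1 into 100 mM buffers: acetate pH 4.0/5.0, His pH 6.0/7.0, phosphate pH 6.0/7.0/7.5. A280 + A325, ~25°C, n=1. Soluble ≥ 1 mg/ml if A325 ≤ 0.02.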

[2] = biological target: T1, human calcitonin receptor (hCTR2) (Homo sapiens, UniProt P30988); assay: hCTR2 assay: induction of cAMP (AlphaScreen cAMP Assay kit) in COS7 cells expressing hCTR2; assay type: cell-based; details: cAMP induction in COS7 cells expressing hCTR2; average of a minimum of 3 determinations; read-out: hCTR2 EC50
T1 construct: expressed in transfected cells
T1 sequence (P30988 25-474): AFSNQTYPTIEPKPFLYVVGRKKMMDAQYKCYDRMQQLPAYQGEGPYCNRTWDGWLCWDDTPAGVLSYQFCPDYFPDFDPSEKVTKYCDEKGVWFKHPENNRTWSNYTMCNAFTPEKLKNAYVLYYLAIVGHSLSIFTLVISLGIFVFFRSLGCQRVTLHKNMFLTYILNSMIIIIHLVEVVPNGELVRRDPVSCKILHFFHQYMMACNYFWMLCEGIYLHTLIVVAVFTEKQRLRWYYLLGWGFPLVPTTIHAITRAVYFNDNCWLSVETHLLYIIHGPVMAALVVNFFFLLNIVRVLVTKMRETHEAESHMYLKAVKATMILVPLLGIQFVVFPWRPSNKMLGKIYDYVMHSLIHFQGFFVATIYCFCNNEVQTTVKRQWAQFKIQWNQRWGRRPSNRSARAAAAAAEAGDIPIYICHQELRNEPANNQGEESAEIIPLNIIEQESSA
Procedure, shortened: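 COS7 stable hCTR2 clone (RAMP-free); peptide dose-response 15 min 37° C in Tyrode pH 7.4 + 100 µM IBMX + 0.1% casein; lysis 10 min RT; AlphaScreen cAMP; 4PL fit.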

Solubility, Acetate buffer pH 4 [1]	Solubility, Acetate buffer pH 5 [1]	Solubility, Histidine buffer pH 6 [1]	Solubility, Histidine buffer pH 7 [1]	Solubility, Phosphate buffer pH 6 [1]	Solubility, Phosphate buffer pH 7 [1]	Solubility, Phosphate buffer pH 7.5 [1]	EC50 [2] [nM]	Structure (SMILES)
SS (SS indicates solubility ≥ 1mg/ml)	SS (SS indicates solubility ≥ 1mg/ml)	SS (SS indicates solubility ≥ 1mg/ml)	SS (SS indicates solubility ≥ 1mg/ml)	SS (SS indicates solubility ≥ 1mg/ml)	SS (SS indicates solubility ≥ 1mg/ml)	SS (SS indicates solubility ≥ 1mg/ml)	0.097	CC[C@H](C)[C@@H](C(=O)N[C@@H](CC(C)C)C(=O)N[C@@H](CO)C(=O)N[C@@H](CO)C(=O)N[C@H](C(=O)N[C@@H](CC(=O)O)C(=O)N[C@H](C(=O)NCC(=O)N[C@@H](CO)C(=O)N[C@@H](CCC(=O)O)C(=O)N[C@H](C(=O)N1CCC[C@H]1C(N)=O)[C@@H](C)O)C(C)C)[C@@H](C)O)N(C)C(=O)[C@H](C)NC(=O)CN(C)C(=O)[C@H](Cc1ccccc1)NC(=O)[C@H](CO)NC(=O)[C@H](CO)NC(=O)[C@H](CO)NC(=O)[C@H](CO)NC(=O)[C@H](CCCNC(=N)N)NC(=O)[C@H](Cc1c[nH]cn1)NC(=O)[C@H](CC(C)C)NC(=O)[C@H](Cc1ccccc1)NC(=O)[C@H](CCC(=O)O)NC(=O)[C@H](C)NC(=O)[C@H](CC(C)C)NC(=O)[C@H](CCCNC(=N)N)NC(=O)[C@H](CCC(N)=O)NC(=O)[C@@H](NC(=O)[C@H](C)NC(=O)[C@@H]1CSSC[C@H](NC(=O)[C@H](CCCNC(=N)N)NC(=O)CC[C@H](NC(=O)CCCCCCCCCCCCCCCCCCC(=O)O)C(=O)O)C(=O)N[C@@H](CC(N)=O)C(=O)N[C@@H]([C@@H](C)O)C(=O)N[C@@H](C)C(=O)N[C@@H]([C@@H](C)O)C(=O)N1)[C@@H](C)O [Compound 74, [19CD]-isoGlu-RC()NTATC()ATQRLAEFLHRSSSSF-Gly(Me)-A-Ile(Me)-LSSTDVGSETP-NH2] ({C20 diacid-γGlu}-RCNTATCATQRLAEFLHRSSSSF[Sar]A[NMeI]LSSTDVGSETP-NH2; disulfide 2-7)
SS (SS indicates solubility ≥ 1mg/ml)	II (II indicates solubility ≤ 1 mg/ml)	II (II indicates solubility ≤ 1 mg/ml)	SS (SS indicates solubility ≥ 1mg/ml)	SS (SS indicates solubility ≥ 1mg/ml)	SS (SS indicates solubility ≥ 1mg/ml)	SS (SS indicates solubility ≥ 1mg/ml)	0.11	CC[C@H](C)[C@@H](C(=O)N[C@@H](CC(C)C)C(=O)N[C@@H](CO)C(=O)N[C@@H](CO)C(=O)N[C@H](C(=O)N[C@@H](CC(=O)O)C(=O)N[C@H](C(=O)NCC(=O)N[C@@H](CO)C(=O)N[C@@H](CCC(=O)O)C(=O)N[C@H](C(=O)N1CCC[C@H]1C(N)=O)[C@@H](C)O)C(C)C)[C@@H](C)O)N(C)C(=O)CN(C)C(=O)[C@H](Cc1ccccc1)NC(=O)[C@H](CO)NC(=O)[C@H](CO)NC(=O)[C@H](CO)NC(=O)[C@H](CO)NC(=O)[C@H](CCCNC(=N)N)NC(=O)[C@H](Cc1c[nH]cn1)NC(=O)[C@H](CC(C)C)NC(=O)[C@H](Cc1ccccc1)NC(=O)[C@H](CCC(=O)O)NC(=O)[C@H](C)NC(=O)[C@H](CC(C)C)NC(=O)[C@H](CCCNC(=N)N)NC(=O)[C@H](CCC(N)=O)NC(=O)[C@@H](NC(=O)[C@H](C)NC(=O)[C@@H]1CSSC[C@H](NC(=O)[C@H](CCCNC(=N)N)NC(=O)CC[C@H](NC(=O)CCCCCCCCCCCCCCCCCCC(=O)O)C(=O)O)C(=O)N[C@@H](CC(N)=O)C(=O)N[C@@H]([C@@H](C)O)C(=O)N[C@@H](C)C(=O)N[C@@H]([C@@H](C)O)C(=O)N1)[C@@H](C)O [Compound 75, [19CD]-isoGlu-RC()NTATC()ATQRLAEFLHRSSSSF-Gly(Me)-Ile(Me)-LSSTDVGSETP-NH2] ({C20 diacid-γGlu}-RCNTATCATQRLAEFLHRSSSSF[Sar][NMeI]LSSTDVGSETP-NH2; disulfide 2-7)
SS (SS indicates solubility ≥ 1mg/ml)	SS (SS indicates solubility ≥ 1mg/ml)	SS (SS indicates solubility ≥ 1mg/ml)	SS (SS indicates solubility ≥ 1mg/ml)	SS (SS indicates solubility ≥ 1mg/ml)	SS (SS indicates solubility ≥ 1mg/ml)	SS (SS indicates solubility ≥ 1mg/ml)	0.07	CC[C@H](C)[C@@H](C(=O)N[C@@H](CC(C)C)C(=O)N[C@@H](CO)C(=O)N[C@@H](CO)C(=O)N[C@H](C(=O)N[C@@H](CCC(=O)O)C(=O)N[C@H](C(=O)NCC(=O)N[C@@H](CO)C(=O)N[C@@H](CC(=O)O)C(=O)N[C@H](C(=O)N1CCC[C@H]1C(N)=O)[C@@H](C)O)C(C)C)[C@@H](C)O)N(C)C(=O)[C@H](C)NC(=O)CN(C)C(=O)[C@H](Cc1ccccc1)NC(=O)[C@H](CO)NC(=O)[C@H](CO)NC(=O)[C@H](CCCNC(=N)N)NC(=O)[C@H](Cc1c[nH]cn1)NC(=O)[C@H](CC(C)C)NC(=O)[C@H](Cc1ccccc1)NC(=O)[C@H](CCC(=O)O)NC(=O)[C@H](C)NC(=O)[C@H](CC(C)C)NC(=O)[C@H](CCCNC(=N)N)NC(=O)[C@H](CCC(N)=O)NC(=O)[C@@H](NC(=O)[C@H](C)NC(=O)[C@@H]1CSSC[C@H](NC(=O)[C@H](CCCNC(=N)N)NC(=O)CC[C@H](NC(=O)CCCCCCCCCCCCCCCCCCC(=O)O)C(=O)O)C(=O)N[C@@H](CC(N)=O)C(=O)N[C@@H]([C@@H](C)O)C(=O)N[C@@H](C)C(=O)N[C@@H]([C@@H](C)O)C(=O)N1)[C@@H](C)O [Compound 78, [19CD]-isoGlu-RC()NTATC()ATQRLAEFLHRSSF-Gly(Me)-A-Ile(Me)-LSSTEVGSDTP-NH2] ({C20 diacid-γGlu}-RCNTATCATQRLAEFLHRSSF[Sar]A[NMeI]LSSTEVGSDTP-NH2; disulfide 2-7)
SS (SS indicates solubility ≥ 1mg/ml)	SS (SS indicates solubility ≥ 1mg/ml)	SS (SS indicates solubility ≥ 1mg/ml)	SS (SS indicates solubility ≥ 1mg/ml)	SS (SS indicates solubility ≥ 1mg/ml)	SS (SS indicates solubility ≥ 1mg/ml)	SS (SS indicates solubility ≥ 1mg/ml)	0.1	CC[C@H](C)[C@@H](C(=O)N[C@@H](CC(C)C)C(=O)N[C@@H](CO)C(=O)N[C@@H](CO)C(=O)N[C@H](C(=O)N[C@@H](CCC(=O)O)C(=O)N[C@H](C(=O)NCC(=O)N[C@@H](CO)C(=O)N[C@@H](CC(=O)O)C(=O)N[C@H](C(=O)N1CCC[C@H]1C(N)=O)[C@@H](C)O)C(C)C)[C@@H](C)O)N(C)C(=O)CN(C)C(=O)[C@H](Cc1ccccc1)NC(=O)[C@H](CO)NC(=O)[C@H](CO)NC(=O)[C@H](CCCNC(=N)N)NC(=O)[C@H](Cc1c[nH]cn1)NC(=O)[C@H](CC(C)C)NC(=O)[C@H](Cc1ccccc1)NC(=O)[C@H](CCC(=O)O)NC(=O)[C@H](C)NC(=O)[C@H](CC(C)C)NC(=O)[C@H](CCCNC(=N)N)NC(=O)[C@H](CCC(N)=O)NC(=O)[C@@H](NC(=O)[C@H](C)NC(=O)[C@@H]1CSSC[C@H](NC(=O)[C@H](CCCNC(=N)N)NC(=O)CC[C@H](NC(=O)CCCCCCCCCCCCCCCCCCC(=O)O)C(=O)O)C(=O)N[C@@H](CC(N)=O)C(=O)N[C@@H]([C@@H](C)O)C(=O)N[C@@H](C)C(=O)N[C@@H]([C@@H](C)O)C(=O)N1)[C@@H](C)O [Compound 79, [19CD]-isoGlu-RC()NTATC()ATQRLAEFLHRSSF-Gly(Me)-Ile(Me)-LSSTEVGSDTP-NH2] ({C20 diacid-γGlu}-RCNTATCATQRLAEFLHRSSF[Sar][NMeI]LSSTEVGSDTP-NH2; disulfide 2-7)
